From US6255080A, “Bacteriocins produced by ruminal bacteria” (priority 1998, dated 2001)
“Also recorded” adds a separate entry of the source.

Columns and labels:
[1] = tested on: indicator; experiment: Effect of detergents on the indicator; assay type: cell-based
Protocol: Further increases in carbohydrate beyond 2% (w/v) had no further effect on enhancing production in liquid culture. As several bacteriocins are known to be cell associated (Jack et al., 1995), bound activity was assayed for by washing pelleted cells with various detergents (Triton X-100, Tween 80, Tween 20). […] However, both Tween 80 and Tween 20 appeared to have no detrimental efLect on the indicator at levels of up to 1.0% (v/v).

[2] = tested on: a-chymotrypsin or pronase; experiment: Protease sensitivity in liquid (spent culture medium or purified bacteriocin), drop test; assay type: in vitro ADME; conditions: purified bacteriocin treated prior to sample preparation
Protocol: Determination of protease sensitivity of bacteriocin-like activity in liquid cultures was carried out as follows: 10 μl of a stock solution (10 mg/ml) of each protease was added to 100 μl of either spent culture medium or the purified bacteriocin, and incubated at 37° C. for 2 hours, after which activity was assessed using a drop test (Tagg et al., 1976). Controls consisted of protease only (1 in 10 dilution) spotted directly onto an overlay containing the indicator organism.
The purity of the peptide was assessed using Triacine-sodium-dodecyl-sulphate-polyacrylamide gel electrophoresis analysis followed by silver staining. […] Protease sensitivity of the isolated bacteriocin was identical to the protease sensitivity of the inhibitor produced in the deferred plate test (see above).

[3] = tested on: indicator strain of B. fibrisolvens; experiment: Drop (spot) test and diffusion well assay of inhibitory activity; assay type: cell-based, Butyrivibrio fibrisolvens; conditions: spot testing, peptide purified by reverse phase chromatography
Protocol: Isolates found to produce bacteriocin-like activity using the deferred plating technique were tested for the production of bacteriocin-like activity in liquid cultures. Briefly, following overnight growth in L-10 medium, a 1.0 ml sample of the culture was centrifuged to remove the cells, and a 100 μl aliquot dropped onto a sterile petri dish and sterilised by exposure to shortwave ultraviolet light for a five minute period. Bacteriocin-like activity within the uv-sterilized spent culture fluid was assayed using both a drop test and diffusion well assay (Tagg et al., 1976). All steps were carried out under anerobic conditions in a glove box.
The active component was purified by FPLC ([…] System, Pharmacia) using reverse phase chromatography. All steps were carried out at 4° C. Solvents consisted of dH2 O (buffer A) and 2-propanol (buffer B), both of which contained 0.1% trifluoroacetic acid. A 0.5 ml aliquot of the crude bacteriocin preparation containing […] was injected onto a Resource RPC 3.0 ml column (Pharmacia), washed with two column volumes of buffer A, and eluted from the column with a gradient from 100% buffer A to 100% buffer B, at a flow rate of 1.0 ml/minute. The elution was monitored at 206 nm. […]

For `CCCCCCCC/C=C\CCCCCCCC(=O)OCCOCC(OCCO)C1OCC(OCCO)C1OCCO` (centres unmarked) [Tween 80], the “level with no detrimental effect on the indicator” value [1] was “up to 1.0 % (v/v)”.
With Triton X-100 the “level very detrimental to the indicator” value ([1]; detergent) was “less than 0.1 % (v/v)”.
For Butyrivibriocin AR10, the “effect of a-chymotrypsin treatment on inhibitory activity” value [2] was “completely eliminated inhibitory activity”, the “effect of pronase treatment on inhibitory activity” value [2] was “completely eliminated inhibitory activity” and the “inhibitory activity of the purified peptide” value [3] was “inhibitory activity; also recorded: inhibitory to the growth”.
